Data reported in US5593991A, “Imidazole compounds, use and process of making” (priority 1995, dated 1997).

System: human PGHS-2 protein expression
Test: Prostoglandin endoperoxide synthase-2 (PGHS-2) protein expression in LPS stimulated human monocytes
Format: cell-based
Conditions: rank order potency similar to that for inhibiting cytokine production
Procedure: The following assay describes a method for determining the inhibitory effects of compounds of Formula (I) on human PGHS-2 protein expression in LPS stimulated human monocytes
Human peripheral blood monocytes were isolated from buffy coats by centrifugation through Ficoll and Percoll gradients. Cells were seeded at 2×10^6 /well in 24 well plates and allowed to adhere for 1 hour in RPMI supplemented with 1% human AB serum, 20 mM L-glutamine, Penicillin-Streptomycin and 10 mM HEPES. Compounds were added at various concentrations and incubated at 37° C. for 10 minutes. LPS was added at 50 ng/well (to induce enzyme expression) and incubated overnight at 37° C. The supernatant was removed and cells washed once in cold PBS. The cells were lysed in 100 μl of cold lysis buffer(50 mM Tris/HCl pH 7.5, 150 mM NaCl, 1% NP40, 0.5% sodium deoxycholate, 0.1% SDS, […] DNAse, 0.1% TRITON X-100, 1 mM PMSF, 1 mM leupeptin, 1 mM pepstatin). The lysate was centrifuged (10,000×g for 10 min. at 4° C.) to remove debris and the soluble fraction was subjected to SDS PAGE. analysis (12% gel). Protein separated on the gel were transferred onto nitrocellulose membrane by electrophoretic means for 2 hours at 60 volts. The membrane was pretreated for one hour in PBS/0.1% Tween 20 with 5% non-fat dry milk. After washing 3 times in PBS/Tween buffer, the membrane was incubated with a 1:2000 dilution of a monospecific antiserum to PGHS-2 or a 1:1000 dilution of an antiserum to PGHs-1 in PBS/Tween with 1% BSA for one hour with continuous shaking. The membrane was washed 3X in PBS/Tween and then incubated with a 1:3000 dilution of horseradish peroxidase conjugated donkey antiserum to rabbit Ig (Amersham) in PBS/Tween with 1% BSA for one hour with continuous shaking. The membrane was then washed 3X in PBS/Tween and the ECL immunodetection system (Amersham) was used to detect the level of expression of prostaglandin endoperoxide synthases-2.

SMILES	inhibited LPS induced PGHS-2 protein expression (active)
C[C@@H]1C[C@H]2[C@@H]3CCC4=CC(=O)C=C[C@]4(C)[C@@]3(F)[C@@H](O)C[C@]2(C)[C@@]1(O)C(=O)CO [Dexamethasone]	active
Fc1ccc(-c2nc3n(c2-c2ccncc2)CCS3)cc1 [6-(4-Fluorophenyl)-2,3-dihydro-5-(4-pyridinyl)imidazo[2,1-b]thiazole]	active
Fc1ccc(-c2ncn(CCCN3CCOCC3)c2-c2ccncc2)cc1 [Example 1, 1-[3-(4-Morpholinyl)propyl]-4-(4-fluorophenyl)-5-(4-pyridyl)imidazole]	active

Same assay, conditions: up to 10 uM

SMILES	inhibition of LPS induced PGHS-2 protein expression (inactive)
C[S+]([O-])c1ccc(-c2nc3n(c2-c2ccncc2)CCC3)cc1 (stereo not shown) [2-(4-Methylsulfinylphenyl)-3-(4-pyridyl)-6,7-dihydro-(5H)-pyrrolo[1,2-a]imidazole]	inactive
COc1ccc(C2CNC(=O)C2)cc1OC1CCCC1 (stereo not shown) [rolipram]	inactive
CC(Cc1ccc(O)c(O)c1)C(C)Cc1ccc(O)c(O)c1 (stereo not shown) [NDGA]	inactive
O=C1CCN(c2ccccc2)N1 [phenidone]	inactive
